From patent publication US12383569B2, “Immunomodulatory oligosaccharides for the treatment of pain” (Intrinsic Medicine, Inc., priority 2019, dated 2025)
Converted amounts (≈) assume the structure as drawn. “Also recorded” adds a separate entry of the source.

Legend:
[1] = tested on: acetic acid-induced writhing; assay: Acetic acid-induced writhing test; type: in vivo; settings: mice pretreated by oral or intravenous administration prior to acetic acid
[2] = tested on: IL-1β mRNA in RAW 264.7 cells; assay: IL-1β mRNA expression in LPS-stimulated macrophages (RT-PCR); type: cell-based, murine; settings: LPS-activated macrophages, single oligosaccharide, 6 hours
Protocol: (§1) RAW246.7 cells were exposed to LPS either alone or in combination with either pooled human milk oligosaccharides (HMOs), or 3′-sialyllactose (3′SL) or 2′-fucosyllactose (2′FL). After 6 hours, IL-6 (A) and IL-1β (B) mRNA levels were measured by RT-PCR and are plotted as mean±standard deviation (n=8) relative the respective mRNA levels in cells that were exposed to LPS alone (**p<0.01; ***p<0.001). HMOs are a group of more than 150 different structurally distinct oligosaccharides and their composition follows a basic structural blueprint (C), containing five monosaccharide building blocks: glucose (dark gray circle), galactose (light gray circle), N-acetylglucosamine (dark gray square), fucose (gray triangle) and sialic acid (gray diamond). 3′SL contains lactose with sialic acid at the terminal end; 2′FL contains lactose with fucose at the terminal end.
(§2) Oligosaccharides Reduce Pro-Inflammatory Cytokine mRNA Expression in Stimulated Macrophages. HMOs were first isolated and purified from pooled human donor milk (pHMO) by using polymixin B affinity chromatography to remove any lipopolysaccharide (LPS) contamination. RAW 264.7 cells, a murine macrophage cell line, were then incubated with LPS (10 ng/mL) and pHMO (500 μg/mL) for 6 hours. RT-PCR was used to measure cytokine mRNA expression. […]

[3] = tested on: collagen antibody-induced arthritis (CAIA) mouse model; assay: Collagen antibody-induced arthritis (CAIA) model; type: in vivo, BALB/c mice; settings: for histology score for cartilage damage / histology score for erosion / histology score for inflammation: hind paws, day 14, scored 0 to 4
Protocol: Next, it was asked whether or not the in vitro results translate to an in vivo model. 3′ SL efficacy in a collagen antibody-induced arthritis (CAIA) model was tested in mice. In the CAIA model, arthritis is induced by systemic administration of a cocktail of monoclonal antibodies that target various regions of collagen type II, which is one of the major constituents of articular cartilage matrix proteins, followed by the administration of endotoxin (LPS) on day 3. The high uptake rate in the CAIA model and the capacity to synchronize the development of arthritis from the time of antibody injection, makes this a relatively straightforward model that is used to address questions of pathogenic mechanisms and to screen candidate therapeutic agents. 8-week old female BALB/c mice were injected with 1.5 mg of Arthrogen-CIA monoclonal antibody cocktail (Chondrex, Inc.).
Three days later, the mice were injected with 25 μg of LPS. Beginning with the time of LPS administration and followed for the next 11 consecutive days, mice were orally gavaged thrice daily with either 3′ SL (20 mg in saline) or saline alone as control. With the tester blinded to the study groups, arthritis in each limb was determined once per day. […] By adding together, the scores of all four limbs, the maximum score per mouse is 28. In addition, a caliper was placed across the ankle joint at the widest point to measure ankle thickness in both hind limbs daily. 14 days after antibody cocktail administration, mice were euthanized, and hind paws collected and processed for histology. H&E—as well as Toluidine blue-stained sections were scored from 0 to 4 for inflammation, bone erosion and cartilage depletion based on a previously validated scoring system.

[4] = tested on: bone marrow derived macrophages; assay: Pro-inflammatory cytokine expression in primary mouse cells; type: cell-based
Source text: (§3) Accordingly, the results with 3′SL translate to primary cells as well as to human macrophages.

[5] = tested on: THP-1 monocytic cell line; assay: Pro-inflammatory cytokine expression in human monocytic cell line; type: cell-based; settings: human THP-1 monocytic cell line
Source text: as §3

[6] = tested on: IL-6 and IL-1β mRNA expression; assay: Dose-range finding for reduction of IL-6 and IL-1β mRNA expression in stimulated macrophages; type: cell-based; settings: Macrophage, dose-range finding studies
Source text: A multi-dimensional chromatography approach was used that separates pHMO first by charge and then by size. […] To exclude that the observed effect was due to impurities or contaminations from the isolation process, the results were confirmed with synthetized and commercially available 3′SL. […] Other oligosaccharides like 2′-fucosyllactose (2′FL), where the terminal monosaccharide is fucose instead of sialic acid (see FIG. 1C), had no effect, emphasizing that the anti-inflammatory effect of 3′ SL in macrophages is specific to the structure of 3′SL.

[7] = tested on: IL-6 mRNA in RAW 264.7 cells; assay: IL-6 mRNA expression in LPS-stimulated macrophages (RT-PCR); type: cell-based, murine; settings: LPS-activated macrophages, single oligosaccharide, 6 hours
Protocol: as §1, §2

[8] = CAIA mice, oral gavage 20 mg thrice daily from LPS trigger, vs saline
[9] = oral gavage 20 mg thrice daily, listed as 3′ SL

IC50 [6] | Compound | inhibition of writhing [1] | reduction of IL-1β mRNA expression [2] | Baseline-corrected ankle thickness (paw swelling) [3, 8] | clinical index score 28 [3, 8] | histology score for cartilage damage ([3]; oral gavage 20 mg thrice daily) | histology score for erosion ([3]; oral gavage 20 mg thrice daily) | histology score for inflammation ([3]; oral gavage 20 mg thrice daily) | histology score for cartilage damage [3, 9] | histology score for erosion [3, 9] | histology score for inflammation [3, 9] | adverse effects ([3]; throughout the 14-day study period, CAIA mice, oral gavage 20 mg thrice daily) | pro-inflammatory cytokine expression [4] | pro-inflammatory cytokine expression [5] | reduction of IL-6 mRNA expression [7]
– | CC(=O)N[C@H]1[C@H]([C@H](O)[C@H](O)CO)O[C@@](O[C@H]2[C@@H](O)[C@@H](CO)O[C@@H](O[C@H]3[C@H](O)[C@@H](O)C(O)O[C@@H]3CO)[C@@H]2O)(C(=O)O)C[C@@H]1O (stereo partly drawn) [Sialyllactose] | causes inhibition of writhing | – | – | – | – | – | – | – | – | – | – | – | – | –
~15 µg/mL (≈ 23.7 µM) | CC(=O)N[C@H]1C([C@H](O)[C@H](O)CO)O[C@@](O[C@@H]2C(O)[C@H](O[C@@H]3C(CO)O[C@@H](O)C(O)[C@H]3O)OC(CO)[C@@H]2O)(C(=O)O)C[C@H]1O (stereo partly drawn) [3′SL, 3′-sialyllactose] | – | most effective; also recorded: reduces | significantly reduced; also recorded: reduces | significantly reduced; also recorded: reduces | significantly lower | significantly lower | significantly lower | significantly reduced | significantly reduced | significantly reduced | No adverse effects | reduced pro-inflammatory cytokine expression | reduced pro-inflammatory cytokine expression | most effective; also recorded: reduces
